Experimental data as given in PubChem BioAssay AID1963868 (Molecular Pharmacology Branch, DTP, NCI, 2024).
“And” between values parts separate entries of the source, which are not always exact repeats. Equal values may be shown once.

Test system: KRAS PDC tumor spheroids (HUVEC+MSC), viability
Assay: Anticancer human tumor 254851-301-R-J1-PDC patient-derived colon carcinoma cell line growth inhibition [KRAS2]
Conditions: for viability, T/C: stronger effect = lower value
From the text: Multicellular complex tumor spheroid response to RAS pathway inhibitors in combination with a targeted agents in patient-derived cell lines with oncogenic KRAS variants from multiple cancer types
A high-throughput screen of multi-cell type tumor spheroids was designed to identify active combinations of targeted small molecules and KRAS pathway inhibitors. Complex spheroids include a stromal component modeled by human endothelial cells (HUVEC) and fibroblasts modeled by human mesenchymal stem cells (MSCs). The concentration ranges selected for each drug and investigational agent were based upon clinically achievable concentrations if the clinical Cmax of the agent was known.
Compounds. The drugs and investigational agents: BI-3406 (NSC825286), BAY-293 (NSC824723), batoprotafib (TNO155; NSC825523), sotorasib (AMG 510; NSC818433), MRTX1257 (NSC819558), elimusertib (BAY 1895344; NSC800525), molibresib (GSK525762; NSC774829), temuterkib (LY3214996; NSC803410), venetoclax (NSC766270), alisertib (NSC759677), olaparib (NSC753686), talazoparib (NSC767125), erdafitinib (NSC781556), ipatasertib (NSC767898), cabozantinib (NSC761068), nintedanib (NSC756659), abemaciclib (NSC768073), docetaxel (NSC628503), trametinib (NSC758246), and sapanisertib (NSC764658) were obtained from the National Cancer Institute (NCI) Developmental Therapeutics Program Chemical Repository. The FDA-approved anticancer drug set is available from the Developmental Therapeutics Program. […] The stock solutions were prepared in dimethyl sulfoxide (DMSO, Sigma-Aldrich, St. Louis, MO, cat. D2650) at 800-fold the tested concentration and stored at -70 degrees C prior to their use. All drugs and investigational agents were tested over a range starting from a high concentration at or near the clinical Cmax and decreasing in half-log increments. If the clinical Cmax for an agent had not been determined, the highest concentration tested was 10 microM.
Cell Culture. All cells were maintained in an incubator at 37 degrees C and 5% CO2 with 95% humidity. The PDC lines were cultured according to standard operating procedures established by the NCI PDMR (https://pdmr.cancer.gov/sops/default.htm). Briefly, all PDCs were thawed and cultured in Matrigel-coated flasks prepared with a working solution of 1X Ham's F-12 nutrient mix, without supplementation (Invitrogen, Waltham, MA, cat. 11765054), 100 U/mL penicillin-streptomycin (Invitrogen, cat. 15140122), and 2.5% Matrigel (Corning Inc., Corning, NY, cat. 354248) for the first three passages. All PDCs were cultured in complete DMEM/F-12 media containing advanced DMEM/F-12 (Invitrogen, cat. 12634028), 4.9% defined fetal bovine serum, heat inactivated (HyClone Laboratories Inc., Logan, UT, cat. SH30070.03HI), 389 ng/mL hydrocortisone (Sigma-Aldrich, cat. H4001), 9.7 ng/mL human EGF recombinant protein (Invitrogen, cat. PHG0313), 23.4 microg/mL adenine (Sigma-Aldrich, cat. A2786), 97.3 U/mL penicillin-streptomycin (Invitrogen, cat. 15140122), 1.9 mM L-glutamine (Invitrogen, cat. 25030081), and 9.7 microM Y-27632 dihydrochloride (Tocris Bioscience, Bristol, United Kingdom, cat. 1254). The PDCs were cultured in complete DMEM/F12 media without 9.7 microM Y-27632 dihydrochloride for at least two passages prior to the screen. The established cell line HOP-62 was cultured in RPMI 1640 medium, HEPES (Invitrogen, cat. 22400105) with 10% defined fetal bovine serum (HyClone Laboratories Inc., cat. SH30070.03) and 2 mM L-glutamine (Invitrogen, cat. 25030081). The pooled donor HUVEC were cultured in endothelial cell growth medium 2 (PromoCell, Heidelberg, Germany, cat. C-22011) and the hMSC were cultured in mesenchymal stem cell growth medium 2 (PromoCell, cat. C-28009). For all experiments, HUVEC and hMSC were used at passages </=5, while the malignant cell lines were used at passages </=15. […]

[1] = compound alone, run of 07/12/2021
[2] = compound alone, run of 07/19/2021
[3] = compound alone, run of 07/26/2021
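Note: spheroids exposed to compounds for seven days before readout.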
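Throughout, for viability, T/C: 100% = DMSO vehicle control luminescence of the spheroids.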

Compound	viability, T/C (compound 0.1 µM)	IC50 [1] [µM]	IC50 [2] [µM]	IC50 [3]	viability, T/C (compound 0.0316 µM)	viability, T/C (compound 0.0001 µM)	viability, T/C (compound 0.000316 µM)	viability, T/C (compound 0.001 µM)	viability, T/C (compound 0.00316 µM)	viability, T/C (compound 0.01 µM)	IC50 (curve of compound)	viability, T/C (compound 0.316 µM)	viability, T/C (compound 1 µM)	viability, T/C (compound 3.16 µM)	viability, T/C (compound 10 µM)
C=CC(=O)N1CCN(c2nc(=O)n(-c3c(C)ccnc3C(C)C)c3nc(-c4c(O)cccc4F)c(F)cc23)C(C)C1 (stereo not given)	100% [middle of 17 runs]	> 10	> 10	> 10 µM	–	–	–	–	–	–	–	–	–	–	–
C=CC(=O)N1CCN(c2nc(OCC3CCCN3C)nc3c2CCN(c2cccc4cccc(C)c24)C3)CC1CC#N (stereo not given)	97% [middle of 17 runs]	> 3.16	> 3.16	> 3.16 µM	98.7% [middle of 17 runs]	–	–	–	–	–	–	–	–	–	–
CC(=O)Nc1cccc(-n2c(=O)n(C3CC3)c(=O)c3c(Nc4ccc(I)cc4F)n(C)c(=O)c(C)c32)c1	–	–	–	–	3.1% [middle of 5 runs]	105% [middle of 5 runs]	96.8% [middle of 5 runs]	91.9% [middle of 5 runs]	75.8% [middle of 5 runs]	26.8% [middle of 5 runs]	5.78 nM [middle of 5 runs]	–	–	–	–
CC(=O)OC12COC1CC(O)C1(C)C(=O)C(O)C3=C(C)C(OC(=O)C(O)C(NC(=O)OC(C)(C)C)c4ccccc4)CC(O)(C(OC(=O)c4ccccc4)C21)C3(C)C (stereo not given)	68.8% [middle of 5 runs]	–	–	–	95.8% [middle of 5 runs]	–	–	–	–	98.5% [middle of 5 runs]	217 nM [middle of 5 runs]	42.4% [middle of 5 runs]	28.1% [middle of 5 runs]	25.8% [middle of 5 runs]	–
CC(C)NCC(C(=O)N1CCN(c2ncnc3c2C(C)CC3O)CC1)c1ccc(Cl)cc1 (stereo not given)	103% [middle of 5 runs]	–	–	–	100% and 101% (3×) and 105%	–	–	–	–	–	> 10 µM	99.5% [middle of 5 runs]	104% [middle of 5 runs]	–	98.9% [middle of 5 runs]
CC(C)n1nc(-c2ccc3oc(N)nc3c2)c2c(N)ncnc21	24.5% [middle of 5 runs]	–	–	–	33.3% [middle of 5 runs]	–	107% [middle of 5 runs]	99.5% (2×) and 104% (2×) and 101%	92.6% [middle of 5 runs]	63.2% [middle of 5 runs]	18.9 nM [middle of 4 runs]	–	–	–	–
CC1(C)CCC(CN2CCN(c3ccc(C(=O)NS(=O)(=O)c4ccc(NCC5CCOCC5)c([N+](=O)[O-])c4)c(Oc4cnc5[nH]ccc5c4)c3)CC2)=C(c2ccc(Cl)cc2)C1	102% [middle of 5 runs]	–	–	–	103% [middle of 5 runs]	–	–	–	–	–	> 10 µM	101% [middle of 5 runs]	102% [middle of 5 runs]	96.3% [middle of 5 runs]	92.8% [middle of 5 runs]
CC1COCCN1c1cc(-c2ccnn2C)c2ccnc(-c3ccn[nH]3)c2n1 (stereo not given)	–	–	–	–	–	–	–	–	–	99.3% [middle of 5 runs]	–	47.7% [middle of 5 runs]	38.6% [middle of 5 runs]	24.1% [middle of 5 runs]	–
CC1OCC2(CCN(c3cnc(Sc4ccnc(N)c4Cl)c(N)n3)CC2)C1N (stereo not given)	96.8% [middle of 19 runs]	> 10	> 10	> 10 µM and 3.88 µM	91.3% and 92.3% and 111%	–	–	–	–	–	> 10 µM	–	82.1% [middle of 19 runs]	–	–
CCN1CCN(Cc2ccc(Nc3ncc(F)c(-c4cc(F)c5nc(C)n(C(C)C)c5c4)n3)nc2)CC1	83.7% [middle of 5 runs]	–	–	–	90.3% [middle of 5 runs]	–	–	–	98.6% [middle of 5 runs]	101% [middle of 5 runs]	–	69.6% [middle of 5 runs]	42% [middle of 5 runs]	–	–
CCNC(=O)CC1N=C(c2ccc(Cl)cc2)c2cc(OC)ccc2-n2c(C)nnc21 (stereo not given)	100% [middle of 5 runs]	–	–	–	110% [middle of 5 runs]	–	–	–	–	–	> 10 µM and 4.98 µM	90.8% [middle of 5 runs]	88.9% [middle of 5 runs]	–	–
CN(C)C/C=C/C(=O)Nc1cc2c(Nc3ccc(F)c(Cl)c3)ncnc2cc1O[C@H]1CCOC1	81.5% [middle of 5 runs]	–	–	–	97.6% [middle of 5 runs]	–	104% [middle of 5 runs]	108% [middle of 5 runs]	104% [middle of 5 runs]	96.8% [middle of 5 runs]	> 0.1 µM	–	–	–	–
COC(=O)c1ccc2c(C(=Nc3ccc(N(C)C(=O)CN4CCN(C)CC4)cc3)c3ccccc3)c(O)[nH]c2c1	99.1% [middle of 5 runs]	–	–	–	104% [middle of 5 runs]	–	–	–	–	–	> 10 µM	95.2% [middle of 5 runs]	97.2% [middle of 5 runs]	86.5% [middle of 5 runs]	95.5% [middle of 5 runs]
COc1cc(Nc2ncc3c(n2)-c2ccc(Cl)cc2C(c2c(F)cccc2OC)=NC3)ccc1C(=O)O	41.5% [middle of 5 runs]	–	–	–	80.7% [middle of 5 runs]	–	–	–	–	–	89.4 nM [middle of 5 runs]	32.4% [middle of 5 runs]	28.5% [middle of 5 runs]	18.7% [middle of 5 runs]	10.7% [middle of 5 runs]
COc1cc(OC)cc(N(CCNC(C)C)c2ccc3ncc(-c4cnn(C)c4)nc3c2)c1	100% [middle of 5 runs]	–	–	–	107% [middle of 5 runs]	–	–	–	–	–	–	96.7% [middle of 5 runs]	–	–	–
COc1cc2nccc(Oc3ccc(NC(=O)C4(C(=O)Nc5ccc(F)cc5)CC4)cc3)c2cc1OC	107% [middle of 5 runs]	–	–	–	103% [middle of 5 runs]	–	–	–	–	–	> 10 µM	105% [middle of 5 runs]	106% [middle of 5 runs]	–	–
Cn1nccc1Nc1nccc(-c2cc3c(s2)C(C)(C)N(CCN2CCOCC2)C3=O)n1	98.1% [middle of 5 runs]	–	–	–	92.9% [middle of 5 runs]	–	–	–	–	–	3.28 µM [middle of 5 runs]	102% [middle of 5 runs]	89.6% [middle of 5 runs]	51.9% [middle of 5 runs]	4.24% [middle of 5 runs]
Cn1ncnc1[C@H]1c2n[nH]c(=O)c3cc(F)cc(c23)N[C@@H]1c1ccc(F)cc1	97.6% [middle of 5 runs]	–	–	–	101% [middle of 5 runs]	–	102% [middle of 5 runs]	101% [middle of 5 runs]	99.2% [middle of 5 runs]	98.7% [middle of 5 runs]	> 0.1 µM	–	–	–	–
O=C(c1cc(Cc2n[nH]c(=O)c3ccccc23)ccc1F)N1CCN(C(=O)C2CC2)CC1	108% [middle of 5 runs]	–	–	–	107% [middle of 5 runs]	–	–	–	–	–	> 10 µM	99.5% [middle of 5 runs]	99.5% [middle of 5 runs]	97.4% [middle of 5 runs]	99.1% [middle of 5 runs]
